Laboratory results: patent US4108724A, “Method for preparing antibiotic P-2563 using Pseudomonas fluorescens” (Takeda Chemical Industries, Ltd., priority 1975, dated 1978)
Converted amounts (≈) assume the structure as drawn. “Also recorded” adds a separate entry of the source. Where a name gives a salt, the structure may show the parent alone.

Legend:
[1] = Solubilities; assay type: physicochemical; details: for Solubilities: insoluble: insoluble solvents; for Solubilities: readily soluble: readily soluble solvents; for Solubilities: sparingly soluble: sparingly soluble solvents
[2] = Stability against pH; assay type: physicochemical; details: outside the stable pH range
[3] = test system: Bacillus subtilis; assay: Antimicrobial spectrum, minimal inhibitory concentration (Procedure I); assay type: cell-based; details: Procedure I: heart infusion agar, 37° C, 24 hours
Method: (§1) In the table, procedures I to III mean the following:
(§2) Procedure I : Cultivated on heart infusion agar medium (Difco) at 37° C for 24 hours.

[4] = test system: Escherichia coli; assay: as above; assay type: cell-based; details: Procedure I: heart infusion agar, 37° C, 24 hours
Method: as §1, §2

[5] = test system: Klebsiella pneumoniae; assay: as above; assay type: cell-based; details: Procedure I: heart infusion agar, 37° C, 24 hours
Method: as §1, §2

[6] = test system: Proteus mirabilis; assay: as above; assay type: cell-based; details: Procedure I: heart infusion agar, 37° C, 24 hours
Method: as §1, §2

[7] = test system: Proteus vulgaris; assay: as above; assay type: cell-based; details: Procedure I: heart infusion agar, 37° C, 24 hours
Method: as §1, §2

[8] = test system: Pseudomonas aeruginosa; assay: as above; assay type: cell-based; details: Procedure I: heart infusion agar, 37° C, 24 hours
Method: as §1, §2

[9] = test system: Staphylococcus aureus; assay: as above; assay type: cell-based; details: Procedure I: heart infusion agar, 37° C, 24 hours
Method: as §1, §2

[10] = test system: Mycobacterium species; assay: Antimicrobial spectrum, minimal inhibitory concentration (Procedure II); assay type: cell-based; details: Procedure II: heart infusion agar with 1 % added glycerin, 37° C, 48 hours
Method: as §1
(§3) Procedure II : Cultivated on heart infusion agar medium with 1 % added glycerin at 37° C for 48 hours.

[11] = test system: Asperigillus fumigatus; assay: Antimicrobial spectrum, minimal inhibitory concentration (Procedure III); assay type: cell-based; details: Procedure III: glucose bouillon agar, 28° C, 96 hours
Method: as §1
(§4) Procedure III : Cultivated on glucose bouillon agar medium at 28° C for 96 hours.

[12] = test system: Candida albicans; assay: as above; assay type: cell-based; details: Procedure III: glucose bouillon agar, 28° C, 96 hours
Method: as §1, §4

[13] = test system: Cryptococcus neoformans; assay: as above; assay type: cell-based; details: Procedure III: glucose bouillon agar, 28° C, 96 hours
Method: as §1, §4

[14] = test system: Microsporum gypseum; assay: as above; assay type: cell-based; details: Nannizzia gypsea; Procedure III: glucose bouillon agar, 28° C, 96 hours
Method: as §1, §4

[15] = test system: Trichophyton mentagrophytes; assay: as above; assay type: cell-based; details: Procedure III: glucose bouillon agar, 28° C, 96 hours
Method: as §1, §4

[16] = Acute toxicity in mice (intravenous); assay type: in vivo; details: for LD50: mouse, in vivo
[17] = test system: gram-positive and gram-negative bacteria; assay: Antimicrobial spectrum (general statement); assay type: cell-based
Method: as §2, §3, §4

[18] = test system: bacteria of the genus Pseudomonas; assay: Antimicrobial spectrum (general statement); assay type: cell-based
Method: as §2

[19] = Toxicity (general statement)

Structure (SMILES)	Solubilities: insoluble [1]	Solubilities: readily soluble [1]	Solubilities: sparingly soluble [1]	Stability: decomposition [2]	MIC [3]	MIC [4]	MIC [5]	MIC [6]	MIC [7]	MIC [8]	MIC [9]	MIC [10]	MIC [11]	MIC [12]	MIC [13]	MIC [14]	MIC [15]	solubility in water (general statement) [1]	antimicrobial spectrum [17]	toxicity [19]	also measured
CCC(=O)N[C@H]1[C@H](O)[C@@H](O)C(OC(C(O)CN)C(N)C(O)CO)O[C@@H]1CO (stereo partly drawn) [P-2563 (I) monohydrochloric acid salt]	insoluble in chloroform, ethyl acetate, ether, n-hexane and petroleum ether	Readily soluble in water and methanol	sparingly soluble in ethanol, n-propanol, butanol and acetone	decomposes gradually with a loss of activity under strongly basic (above pH 8) and strongly acidic (below pH 3) conditions																	
CCC(=O)N[C@H]1[C@H](O)[C@@H](O)C(OC(C(O)CN)C(N)C(O)CO)O[C@@H]1CO (stereo partly drawn) [P-2563 (I)]	insoluble in chloroform, ethyl acetate, ether, n-hexane and petroleum ether	Readily soluble in water, methanol and ethanol	sparingly soluble in n-propanol, butanol and acetone	decomposes gradually with a loss of activity under strongly basic (above pH 8) and strongly acidic (below pH 3) conditions	30 µg/mL (≈ 75.5 µM)	30 µg/mL (≈ 75.5 µM)	12.5 µg/mL (≈ 31.5 µM)	200 µg/mL (≈ 503 µM)	30 µg/mL (≈ 75.5 µM)	50 µg/mL (≈ 126 µM)	50 µg/mL (≈ 126 µM)	200 µg/mL (≈ 503 µM)	> 500 µg/mL	> 500 µg/mL	> 500 µg/mL	> 500 µg/mL	> 500 µg/mL	water-soluble	broad antimicrobial spectrum, especially against gram-positive and gram-neg ative bacteria; also recorded: inhibitory to gram-positive and gram-negative bacteria	low toxicity	toxicity [16]: extremely low in toxicity; LD50 [16]: > 400 mg/kg; inhibitory to bacteria of the genus Pseudomonas [18]: particularly to bacteria of the genus Pseudomonas
CC(=O)N[C@H]1[C@H](O)[C@@H](O)C(OC(C(O)CN)C(N)C(O)CO)O[C@@H]1CO (stereo partly drawn) [P-2563 (II)]	insoluble in chloroform, ethyl acetate, ether, n-hexane and petroleum ether	Readily soluble in water and methanol	sparingly soluble in ethanol, n-propanol, butanol and acetone	decmposes gradually with a loss of activity under strongly basic (above pH 8) and strongly acidic (below pH 3) conditions	70 µg/mL (≈ 183 µM)	50 µg/mL (≈ 130 µM)	50 µg/mL (≈ 130 µM)	200 µg/mL (≈ 522 µM)	100 µg/mL (≈ 261 µM)	300 µg/mL (≈ 782 µM)	200 µg/mL (≈ 522 µM)	200 µg/mL (≈ 522 µM)	> 500 µg/mL	> 500 µg/mL	> 500 µg/mL	> 500 µg/mL	> 500 µg/mL	water-soluble	broad antimicrobial spectrum, especially against gram-positive and gram-neg ative bacteria; also recorded: inhibitory to gram-positive and gram-negative bacteria	low toxicity	toxicity [16]: extremely low in toxicity; LD50 [16]: > 400 mg/kg; inhibitory to bacteria of the genus Pseudomonas [18]: particularly to bacteria of the genus Pseudomonas
NCC(O)C(OC1O[C@H](CO)[C@@H](N)[C@H](O)[C@H]1O)C(N)C(O)CO (stereo partly drawn) [P-2563 (III)]	insoluble in chloroform, ethylacetate, ether, n-hexane and petroleum ether	Readily soluble in water and methanol	sparingly soluble in ethanol, n-propanol, butanol and acetone	decomposes gradually under strongly acidic (below pH 3) and strongly basic (above pH 13) conditions														water-soluble	broad antimicrobial spectrum, especially against gram-positive and gram-neg ative bacteria	low toxicity	
